10 compounds from patent publication US20240109865A1, “INDAZOLE COMPOUNDS AS KINASE INHIBITORS” (TYRA BIOSCIENCES, INC., priority 2020, published 2024) can be followed below.

The target of assay [1] is FGFR3-BAIAP2L1 Ba/F3 cells (Homo sapiens, UniProt P22607). Kind of assay: Ba/F3 cell viability assay (CellTiter-Glo 2.0), FGFR3-BAIAP2L1 Ba/F3. In kind it is cell-based. Particulars: for Ba/F3 FGFR1/FGFR3 Selectivity: FGFR3 > FGFR1 selectivity ratio in Ba/F3 FGFR fusion cell based assays; for IC50: read-out: Ba/F3 Cells FGFR3 (IC50 nM), FGFR3-BAIAP2L1 Ba/F3 cells, 48 hours, Cell Titer Glo 2.0. A digest of the protocol:
(§1)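 Viability read as ATP luminescence (CellTiter-Glo 2.0) after 48 h compound exposure, normalized to DMSO-treated cells and fitted with a 4-parameter curve for IC50. Cells: Ba/F3 dependent on FGFR1-BCR or FGFR3-BAIAP2L1 fusion kinase; top dose 30 μM, 10-fold steps, 9 doses in triplicate.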

The target of assay [2] is FGFR1-BCR Ba/F3 cells (Homo sapiens, UniProt P11362). Kind of assay: Ba/F3 cell viability assay (CellTiter-Glo 2.0), FGFR1-BCR Ba/F3. In kind it is cell-based. Particulars: read-out: Ba/F3 Cells FGFR1 (IC50 nM), 48 hours, Cell Titer Glo 2.0. A digest of the protocol: as §1
FGFR1-BCR Ba/F3 cells, sequence (P11362 22-822 limits assumed, change not shown): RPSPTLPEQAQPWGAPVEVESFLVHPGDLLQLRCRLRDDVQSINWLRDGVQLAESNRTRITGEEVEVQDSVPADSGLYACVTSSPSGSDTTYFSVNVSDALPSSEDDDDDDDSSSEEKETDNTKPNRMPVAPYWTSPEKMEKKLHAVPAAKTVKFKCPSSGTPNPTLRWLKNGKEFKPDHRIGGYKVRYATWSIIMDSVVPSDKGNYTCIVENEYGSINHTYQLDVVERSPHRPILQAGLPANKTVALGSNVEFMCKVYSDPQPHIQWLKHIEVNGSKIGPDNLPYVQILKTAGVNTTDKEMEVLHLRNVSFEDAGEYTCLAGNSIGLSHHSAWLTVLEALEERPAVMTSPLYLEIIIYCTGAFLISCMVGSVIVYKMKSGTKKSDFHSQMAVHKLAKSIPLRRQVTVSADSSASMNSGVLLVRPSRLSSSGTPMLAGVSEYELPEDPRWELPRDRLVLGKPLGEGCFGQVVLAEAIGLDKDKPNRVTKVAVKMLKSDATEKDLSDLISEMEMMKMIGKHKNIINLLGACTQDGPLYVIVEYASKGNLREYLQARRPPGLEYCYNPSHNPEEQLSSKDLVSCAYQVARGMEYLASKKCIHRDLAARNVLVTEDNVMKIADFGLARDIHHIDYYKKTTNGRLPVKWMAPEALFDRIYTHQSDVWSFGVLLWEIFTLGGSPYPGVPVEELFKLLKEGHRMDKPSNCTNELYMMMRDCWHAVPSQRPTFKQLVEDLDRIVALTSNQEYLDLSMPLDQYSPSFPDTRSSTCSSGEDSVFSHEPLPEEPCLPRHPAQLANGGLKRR
A general note: Cellular ATP, detected with luciferase, serves as a proxy for viable cell number.

Assay [3] has as its system RT112/84 cells (FGFR3-fusion). Kind of assay: RT112/84 cancer cell line cell viability assay (CellTiter-Glo 2.0). In kind it is cell-based. Particulars: Homo sapiens, 72 hours, Cell Titer Glo 2.0. Put shortly:
(§2)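 Viability was measured as cellular ATP by CellTiter-Glo 2.0 luminescence after 72 h compound exposure, using nine 10-fold doses from 30 μM, in triplicate. Cells were plated at 10,000/well in RPMI1640 with 10% FBS the day before dosing. Signal was expressed as % of DMSO-treated control, and IC50 came from a 4-parameter fit.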

Assay [4] concerns UM-UC-14 cells (FGFR3(S249C)). Kind of assay: UM-UC-14 cancer cell line cell viability assay (CellTiter-Glo 2.0). In kind it is cell-based. Particulars: UMUC14, 72 hours, Cell Titer Glo 2.0. A digest of the protocol: as §2
The test system of assay [5] is KG-1 cells (FGFR1-fusion). Kind of assay: KG-1 cancer cell line cell viability assay (CellTiter-Glo 2.0). The assay is classed as cell-based. Particulars: Homo sapiens, 72 hours, Cell Titer Glo 2.0. A digest of the protocol: as §2
Assay [6] deals with FGFR1 (Homo sapiens (Human), UniProt P11362). Kind of assay: Kinase assay, binding constants (Kd), kinase-tagged T7 phage, qPCR. A digest of the protocol:
(§3)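 Using T7 phage lysates from BL21-derived E. coli, compounds at 0.9% final DMSO competed for kinase binding to ligand-bearing magnetic beads. After elution, qPCR measured remaining kinase, and Kds were fitted by non-linear least squares with the Hill slope fixed at −1.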
For orientation: Quantitative PCR measures a nucleic acid by following its amplification.

The target of assay [7] is FGFR2 (Homo sapiens (Human), UniProt P21802). The assay is described as above. Put shortly:
as §3

For assay [8], the target named is FGFR3 (Homo sapiens (Human), UniProt P22607). The description is as above. Put shortly:
as §3

Assay [9] concerns the target FGFR3 (V555M) (Homo sapiens (Human), UniProt P22607, V555M). Described as above. Particulars: V555M mutant. A digest of the protocol: as §3
Assay [10] addresses FGFR4 (Homo sapiens (Human), UniProt P22455). The description is as above. A digest of the protocol: as §3

FGFR3-BAIAP2L1 Ba/F3 cells, sequence (P22607 23-806 limits assumed, change not shown): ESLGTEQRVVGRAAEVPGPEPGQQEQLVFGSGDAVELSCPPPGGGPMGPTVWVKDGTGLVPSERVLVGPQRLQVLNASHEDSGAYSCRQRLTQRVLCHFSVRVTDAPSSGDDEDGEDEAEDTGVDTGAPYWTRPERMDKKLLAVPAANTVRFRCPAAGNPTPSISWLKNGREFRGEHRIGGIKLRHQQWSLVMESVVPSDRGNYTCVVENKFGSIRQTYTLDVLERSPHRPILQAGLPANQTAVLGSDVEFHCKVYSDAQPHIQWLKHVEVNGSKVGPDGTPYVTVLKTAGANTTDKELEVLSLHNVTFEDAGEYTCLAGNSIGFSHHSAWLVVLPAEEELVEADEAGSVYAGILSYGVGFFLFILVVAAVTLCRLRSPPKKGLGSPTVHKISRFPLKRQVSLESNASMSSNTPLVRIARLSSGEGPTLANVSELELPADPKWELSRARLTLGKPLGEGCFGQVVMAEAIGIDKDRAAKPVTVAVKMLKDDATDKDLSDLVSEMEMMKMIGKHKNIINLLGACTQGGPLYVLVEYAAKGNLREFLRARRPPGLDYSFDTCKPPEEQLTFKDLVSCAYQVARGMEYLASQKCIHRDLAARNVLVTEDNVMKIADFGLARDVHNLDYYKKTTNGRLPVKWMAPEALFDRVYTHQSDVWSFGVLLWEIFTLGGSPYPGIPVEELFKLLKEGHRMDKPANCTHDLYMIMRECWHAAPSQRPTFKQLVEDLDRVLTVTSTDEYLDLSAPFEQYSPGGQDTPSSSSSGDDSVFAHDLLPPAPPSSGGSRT
FGFR3, sequence (P22607 23-806): as the sequence (P22607 23-806 limits assumed, change not shown) above
FGFR2, sequence (P21802 22-821): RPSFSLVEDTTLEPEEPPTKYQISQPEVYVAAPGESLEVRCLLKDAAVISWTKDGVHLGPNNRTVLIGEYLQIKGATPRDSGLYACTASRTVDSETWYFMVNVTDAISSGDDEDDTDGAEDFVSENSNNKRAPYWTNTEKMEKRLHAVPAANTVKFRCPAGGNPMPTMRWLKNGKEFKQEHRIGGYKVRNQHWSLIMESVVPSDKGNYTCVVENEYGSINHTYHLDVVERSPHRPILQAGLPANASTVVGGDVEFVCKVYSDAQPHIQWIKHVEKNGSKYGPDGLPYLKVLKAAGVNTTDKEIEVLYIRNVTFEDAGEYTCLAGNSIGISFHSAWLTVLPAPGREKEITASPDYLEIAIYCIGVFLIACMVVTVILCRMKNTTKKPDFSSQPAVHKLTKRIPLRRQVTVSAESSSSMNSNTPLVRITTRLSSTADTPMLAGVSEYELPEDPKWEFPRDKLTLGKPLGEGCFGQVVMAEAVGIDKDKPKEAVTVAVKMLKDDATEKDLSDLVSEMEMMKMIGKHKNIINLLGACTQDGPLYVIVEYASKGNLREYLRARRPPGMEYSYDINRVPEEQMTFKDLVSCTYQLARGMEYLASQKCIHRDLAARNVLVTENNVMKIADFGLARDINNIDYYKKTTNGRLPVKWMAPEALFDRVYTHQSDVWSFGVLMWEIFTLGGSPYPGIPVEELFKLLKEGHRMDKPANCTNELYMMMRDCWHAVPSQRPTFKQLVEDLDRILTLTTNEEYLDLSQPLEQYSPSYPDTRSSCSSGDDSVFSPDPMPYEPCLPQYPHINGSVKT
FGFR1, sequence (P11362 22-822): as the sequence (P11362 22-822 limits assumed, change not shown) above
FGFR3 (V555M), sequence (P22607 23-806 V555M): as the sequence (P22607 23-806 limits assumed, change not shown) above, with V533M counted along it
FGFR4, sequence (P22455 22-802): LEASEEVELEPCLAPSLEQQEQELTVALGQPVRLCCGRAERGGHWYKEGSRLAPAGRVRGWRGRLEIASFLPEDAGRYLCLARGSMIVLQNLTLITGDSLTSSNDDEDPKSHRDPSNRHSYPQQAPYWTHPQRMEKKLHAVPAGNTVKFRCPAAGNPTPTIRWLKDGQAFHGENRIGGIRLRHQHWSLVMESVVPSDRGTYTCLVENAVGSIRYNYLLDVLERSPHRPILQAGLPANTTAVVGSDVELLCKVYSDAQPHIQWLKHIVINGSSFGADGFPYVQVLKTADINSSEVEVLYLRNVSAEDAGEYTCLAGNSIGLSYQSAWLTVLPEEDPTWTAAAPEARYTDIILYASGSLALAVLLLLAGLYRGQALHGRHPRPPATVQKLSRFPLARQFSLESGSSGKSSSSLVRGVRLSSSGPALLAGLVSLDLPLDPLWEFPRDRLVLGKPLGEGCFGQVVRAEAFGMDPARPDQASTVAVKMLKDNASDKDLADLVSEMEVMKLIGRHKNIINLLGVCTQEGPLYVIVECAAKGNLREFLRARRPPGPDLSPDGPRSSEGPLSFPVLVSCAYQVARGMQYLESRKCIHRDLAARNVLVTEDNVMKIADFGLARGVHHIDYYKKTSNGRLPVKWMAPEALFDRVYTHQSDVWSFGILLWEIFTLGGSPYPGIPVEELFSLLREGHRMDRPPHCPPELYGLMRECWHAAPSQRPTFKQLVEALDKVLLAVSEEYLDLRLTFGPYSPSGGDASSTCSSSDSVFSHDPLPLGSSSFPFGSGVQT

As usually defined, the Kd is the free concentration of one partner at which half of the binding sites on the other are occupied at equilibrium, for simple one-to-one binding. For the compound `C[C@@H](Oc1ccc2[nH]nc(-c3ccc(N4CCC5(CCCO5)CC4)nc3)c2c1)c1c(Cl)cncc1Cl` [Example 26, 8-[5-[5-[(1R)-1-(3,5-dichloro-4-pyridyl)ethoxy]-1H-indazol-3-yl]-2-pyridyl]-1-oxa-8-azaspiro[4.5]decane], the “Ba/F3 FGFR1/FGFR3 Selectivity” value in assay [1] amounted to 28. Further, the IC50 in assay [1] is 20 to 100 nM; in [2] it was more than 300 nM; in [3], 20 to 100 nM; in assay [4], 20 to 100 nM; in assay [5] it was more than 300 nM. For the same compound, the Kd in assay [6] is 20 to 100 nM; in [7], 20 to 100 nM; in [8] it was 1 to 20 nM; in assay [9] it was 1 to 20 nM; in assay [10], 1 to 20 nM.

In the case of `C[C@@H](Oc1ccc2[nH]nc(-c3ccc(N4CCC5(CCNC5=O)CC4)nc3)c2c1)c1c(Cl)cncc1Cl` [Example 27, 8-[5-[5-[(1R)-1-(3,5-dichloro-4-pyridyl)ethoxy]-1H-indazol-3-yl]-2-pyridyl]-2,8-diazaspiro[4.5]decan-1-one], in assay [1], the “Ba/F3 FGFR1/FGFR3 Selectivity” value is given as 24. Moreover, the IC50 lay within 1 to 20 nM in assay [1]; 100 to 300 nM in assay [2]; 1 to 20 nM in [3]; 1 to 20 nM in [4]; 100 to 300 nM in [5]. The Kd in assay [6] fell in the range of 20 to 100 nM; in [7], 1 to 20 nM; in assay [8] it was 1 to 20 nM; in assay [9], 1 to 20 nM; in [10] it was 1 to 20 nM.

As for `C[C@@H](Oc1ccc2[nH]nc(-c3ccc(N4CCC5(CCOC5)CC4)nc3)c2c1)c1c(Cl)cncc1Cl` [Example 28, 8-[5-[5-[(1R)-1-(3,5-dichloro-4-pyridyl)ethoxy]-1H-indazol-3-yl]-2-pyridyl]-2-oxa-8-azaspiro[4.5]decane], the “Ba/F3 FGFR1/FGFR3 Selectivity” value in assay [1] is on record as 22. Moreover, the IC50 in assay [1] was 1 to 20 nM; in assay [2], more than 300 nM; in assay [3], 1 to 20 nM; in assay [4], 1 to 20 nM; in assay [5], 100 to 300 nM. Also, the Kd in assay [6] lay within 20 to 100 nM; in [7], 20 to 100 nM; in assay [8] it was 1 to 20 nM; in [9], 1 to 20 nM; in assay [10], 1 to 20 nM.

For `C[C@@H](Oc1ccc2[nH]nc(-c3ccc(N4CCC5(CCN(C)C5)CC4)nc3)c2c1)c1c(Cl)cncc1Cl` [Example 32, 8-[5-[5-[(1R)-1-(3,5-dichloro-4-pyridyl)ethoxy]-1H-indazol-3-yl]-2-pyridyl]-2-methyl-2,8-diazaspiro[4.5]decane], in assay [1], the “Ba/F3 FGFR1/FGFR3 Selectivity” value is 12. Moreover, the IC50 lay within 1 to 20 nM in assay [1]; 100 to 300 nM in assay [2]; 1 to 20 nM in assay [3]; 1 to 20 nM in assay [4]; 20 to 100 nM in [5]. In addition, the Kd in assay [6], in assay [7], in assay [8], in assay [9] and in [10] was 1 to 20 nM in each case.

For `C[C@@H](Oc1ccc2[nH]nc(-c3ccc(N4CCC5(CCCN5C)CC4)nc3)c2c1)c1c(Cl)cncc1Cl` [Example 33, 8-[5-[5-[(1R)-1-(3,5-dichloro-4-pyridyl)ethoxy]-1H-indazol-3-yl]-2-pyridyl]-1-methyl-1,8-diazaspiro[4.5]decane], the “Ba/F3 FGFR1/FGFR3 Selectivity” value in assay [1] amounted to 16. The IC50 lay in the range of 1 to 20 nM in assay [1]; 20 to 100 nM in assay [2]; 1 to 20 nM in assay [3]; 1 to 20 nM in assay [4]; 20 to 100 nM in assay [5]. Moreover, the Kd in assay [6], in assay [7], in [8], in [9] and in [10] was 1 to 20 nM in each case.

Turning to `C[C@@H](Oc1ccc2[nH]nc(-c3ccc(N4CCC5(CC4)C(=O)NCCN5C)nc3)c2c1)c1c(Cl)cncc1Cl` [Example 34, 9-[5-[5-[(1R)-1-(3,5-dichloro-4-pyridyl)ethoxy]-1H-indazol-3-yl]-2-pyridyl]-1-methyl-1,4,9-triazaspiro[5.5]undecan-5-one], the “Ba/F3 FGFR1/FGFR3 Selectivity” value in assay [1] was found to be 28. Also, the IC50 lay in the range of 1 to 20 nM in assay [1]; 20 to 100 nM in assay [2]; 1 to 20 nM in assay [3]; 1 to 20 nM in assay [4]; 20 to 100 nM in assay [5]. For the same compound, the Kd in assay [6], in assay [7], in assay [8], in assay [9] and in assay [10] was 1 to 20 nM in each case.

As to `C[C@@H](Oc1ccc2[nH]nc(-c3ccc(N4CC5(C4)CN(S(C)(=O)=O)C5)nc3)c2c1)c1c(Cl)cncc1Cl` [Example 46, 5-[(1R)-1-(3,5-dichloro-4-pyridyl)ethoxy]-3-[6-(2-methylsulfonyl-2,6-diazaspiro[3.3]heptan-6-yl)-3-pyridyl]-1H-indazole], in assay [1], the “Ba/F3 FGFR1/FGFR3 Selectivity” value came to 14. Moreover, the IC50 in [1] fell in the range of 1 to 20 nM; in assay [2] it was 20 to 100 nM; in [3], 1 to 20 nM; in assay [4] it was 1 to 20 nM; in [5] it was 20 to 100 nM. The Kd in assay [6], in [7], in [8], in assay [9] and in assay [10] was 1 to 20 nM each time.

As to `C[C@@H](Oc1ccc2[nH]nc(-c3ccc(N4CC5(CN(C(=O)N(C)C)C5)C4)nc3)c2c1)c1c(Cl)cncc1Cl` [Example 47, 6-[5-[5-[(1R)-1-(3,5-dichloro-4-pyridyl)ethoxy]-1H-indazol-3-yl]-2-pyridyl]-N,N-dimethyl-2,6-diazaspiro[3.3]heptane-2-carboxamide], the “Ba/F3 FGFR1/FGFR3 Selectivity” value in assay [1] is on record as 21. The IC50 in assay [1] is 1 to 20 nM; in assay [2], 100 to 300 nM; in assay [3] it was 1 to 20 nM; in assay [4], 1 to 20 nM; in [5], 100 to 300 nM. Also, the Kd in [6], in assay [7], in assay [8], in [9] and in assay [10] was 1 to 20 nM in each case.

Regarding `C[C@@H](Oc1ccc2[nH]nc(-c3cnc(N4CCC5(CCC(=O)N5)CC4)nc3)c2c1)c1c(Cl)cncc1Cl` [Example 48, 8-[5-[5-[(1R)-1-(3,5-dichloro-4-pyridyl)ethoxy]-1H-indazol-3-yl]pyrimidin-2-yl]-1,8-diazaspiro[4.5]decan-2-one], the “Ba/F3 FGFR1/FGFR3 Selectivity” value in assay [1] came to 8. The IC50 in assay [1] was 20 to 100 nM; in assay [2], 100 to 300 nM; in assay [3] it was 20 to 100 nM; in assay [4], 20 to 100 nM; in [5] it was 100 to 300 nM. For the same compound, the Kd in [6] is 20 to 100 nM; in [7], 20 to 100 nM; in assay [8], 1 to 20 nM; in assay [9] it was 1 to 20 nM; in [10], 1 to 20 nM.

Take `C[C@@H](Oc1ccc2[nH]nc(-c3cnc(N4CCC5(CC4)CNC(=O)C5)nc3)c2c1)c1c(Cl)cncc1Cl` [Example 49, 8-[5-[5-[(1R)-1-(3,5-dichloro-4-pyridyl)ethoxy]-1H-indazol-3-yl]pyrimidin-2-yl]-2,8-diazaspiro[4.5]decan-3-one]: the “Ba/F3 FGFR1/FGFR3 Selectivity” value in assay [1] amounted to 10. Moreover, the IC50 in assay [1] was 1 to 20 nM; in [2], 100 to 300 nM; in assay [3], 20 to 100 nM; in [4], 20 to 100 nM; in assay [5] it was 100 to 300 nM. In addition, the Kd lay within 20 to 100 nM in assay [6]; 20 to 100 nM in assay [7]; 1 to 20 nM in [8]; 1 to 20 nM in assay [9]; 1 to 20 nM in assay [10].
